Experimental data from patent publication US20150018301A1, “LRRK-2-Mediated Neuronal Toxicity” (THE JOHNS HOPKINS UNIVERSITY, priority 2009, published 2015).

Tests used:
Format in all cases: biochemical
[1] = target: LRRK2 WT (Homo sapiens, UniProt Q5S007); experiment: In vitro kinase assay: LRRK2-mediated MBP phosphorylation; settings: for effect on WT LRRK2 MBP phosphorylation: dose-response; for IC50: mean of three experiments; for MBP phosphorylation Average ± SEM: compound 16 μM, 30° C., 15 min, normalized to absence of compound, mean ± S.E.M. of three experiments; for effect on LRRK2-mediated phosphorylation of MBP: screen at 16 μM
Chain of LRRK2 WT (Q5S007 whole entry): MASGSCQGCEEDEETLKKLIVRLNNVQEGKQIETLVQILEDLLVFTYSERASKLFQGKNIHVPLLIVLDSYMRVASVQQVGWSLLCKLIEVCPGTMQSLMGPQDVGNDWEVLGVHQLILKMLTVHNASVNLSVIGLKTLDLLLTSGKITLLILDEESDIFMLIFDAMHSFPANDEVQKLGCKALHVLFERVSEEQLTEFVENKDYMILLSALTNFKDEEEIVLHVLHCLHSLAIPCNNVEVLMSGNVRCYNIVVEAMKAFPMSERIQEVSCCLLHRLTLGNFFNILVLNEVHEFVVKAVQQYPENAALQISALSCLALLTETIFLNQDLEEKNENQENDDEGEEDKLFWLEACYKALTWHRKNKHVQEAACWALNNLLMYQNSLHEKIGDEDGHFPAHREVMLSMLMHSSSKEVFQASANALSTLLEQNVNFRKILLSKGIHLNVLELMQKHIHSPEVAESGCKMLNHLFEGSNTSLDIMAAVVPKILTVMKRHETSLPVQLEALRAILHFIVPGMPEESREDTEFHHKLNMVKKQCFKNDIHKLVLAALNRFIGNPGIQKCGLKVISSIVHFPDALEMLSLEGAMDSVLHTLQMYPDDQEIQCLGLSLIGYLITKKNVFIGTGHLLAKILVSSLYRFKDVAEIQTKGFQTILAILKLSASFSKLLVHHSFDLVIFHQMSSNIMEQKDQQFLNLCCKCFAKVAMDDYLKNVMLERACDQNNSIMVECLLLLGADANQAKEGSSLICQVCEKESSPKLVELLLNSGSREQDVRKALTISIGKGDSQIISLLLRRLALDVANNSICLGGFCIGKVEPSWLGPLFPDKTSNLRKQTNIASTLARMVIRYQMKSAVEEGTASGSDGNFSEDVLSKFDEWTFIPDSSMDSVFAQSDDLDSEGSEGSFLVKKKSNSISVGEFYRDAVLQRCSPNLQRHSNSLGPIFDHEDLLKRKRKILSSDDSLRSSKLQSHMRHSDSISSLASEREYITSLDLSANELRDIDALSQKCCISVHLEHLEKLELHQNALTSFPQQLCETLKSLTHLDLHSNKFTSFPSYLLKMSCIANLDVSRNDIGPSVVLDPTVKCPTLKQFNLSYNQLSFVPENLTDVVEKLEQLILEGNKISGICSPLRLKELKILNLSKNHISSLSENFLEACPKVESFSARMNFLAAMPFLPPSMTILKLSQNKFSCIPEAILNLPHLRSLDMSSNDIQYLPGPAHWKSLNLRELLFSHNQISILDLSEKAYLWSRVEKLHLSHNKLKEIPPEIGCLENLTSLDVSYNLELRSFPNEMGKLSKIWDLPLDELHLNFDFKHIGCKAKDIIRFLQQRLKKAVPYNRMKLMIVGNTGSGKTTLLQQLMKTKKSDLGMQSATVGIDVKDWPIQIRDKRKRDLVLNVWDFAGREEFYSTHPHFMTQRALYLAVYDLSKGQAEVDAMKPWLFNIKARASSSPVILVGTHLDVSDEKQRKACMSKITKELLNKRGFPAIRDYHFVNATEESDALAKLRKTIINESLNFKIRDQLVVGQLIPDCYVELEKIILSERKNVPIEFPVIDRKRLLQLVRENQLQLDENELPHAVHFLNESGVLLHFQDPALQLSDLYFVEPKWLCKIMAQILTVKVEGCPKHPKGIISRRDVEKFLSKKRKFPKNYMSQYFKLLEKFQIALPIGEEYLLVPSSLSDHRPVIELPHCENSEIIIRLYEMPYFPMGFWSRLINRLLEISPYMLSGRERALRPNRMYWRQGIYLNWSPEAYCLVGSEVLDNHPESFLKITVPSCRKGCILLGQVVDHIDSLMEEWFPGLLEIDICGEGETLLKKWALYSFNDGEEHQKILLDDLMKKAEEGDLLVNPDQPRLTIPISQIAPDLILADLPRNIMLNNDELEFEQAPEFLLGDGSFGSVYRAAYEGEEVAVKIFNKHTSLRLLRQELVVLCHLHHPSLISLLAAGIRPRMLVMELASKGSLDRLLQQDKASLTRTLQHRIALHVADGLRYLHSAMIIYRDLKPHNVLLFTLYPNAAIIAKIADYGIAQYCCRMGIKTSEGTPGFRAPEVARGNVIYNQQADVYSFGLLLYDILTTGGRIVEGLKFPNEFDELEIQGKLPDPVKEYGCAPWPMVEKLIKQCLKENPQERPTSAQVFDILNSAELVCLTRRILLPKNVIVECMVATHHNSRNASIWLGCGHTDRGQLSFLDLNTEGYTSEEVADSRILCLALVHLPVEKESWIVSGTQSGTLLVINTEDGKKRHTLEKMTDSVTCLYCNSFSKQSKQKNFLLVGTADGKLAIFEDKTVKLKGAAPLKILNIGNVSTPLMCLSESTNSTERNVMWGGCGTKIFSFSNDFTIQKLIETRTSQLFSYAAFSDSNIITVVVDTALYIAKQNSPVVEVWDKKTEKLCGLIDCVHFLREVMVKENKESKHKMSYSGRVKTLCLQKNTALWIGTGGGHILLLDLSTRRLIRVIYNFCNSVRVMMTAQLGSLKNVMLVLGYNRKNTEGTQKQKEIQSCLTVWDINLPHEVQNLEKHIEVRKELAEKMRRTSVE

[2] = target: T1, LRRK2 G2019S (Homo sapiens, UniProt Q5S007, G2019S); experiment: In vitro kinase assay: G2019S LRRK2 autophosphorylation; settings: for effect on G2019S LRRK2 autophosphorylation: dose-response; for IC50: Table 2, mean of three experiments
T1 sequence (Q5S007 whole entry G2019S): as the sequence (Q5S007 whole entry) above, with G2019S counted along it
Procedure: (§1) Transfection was performed by using Fugene HD reagent (Roche Applied Science) according to the manufacturer's instruction. For purification of recombinant LRRK1 and LRRK2 proteins, ACTA Purifier (GE Healthcare) FPLC system was used.
(§2) Resulting lysates were rotated at 4° C. for 30 min followed by centrifugation at 20,000×g for 15 min. The supernatants were injected into a GSTrap FF column pre-equilibrated with PBS at 0.5. mL/min flow after filtration using a 0.2 μm syringe filter (Corning). The bound proteins were eluted with buffer containing 10 mM GSH (Sigma), 150 mM NaCl, and 50 mM Tris-HCl (pH 8.0).
(§3) The in vitro kinase assay was performed as previously described. […] Recombinant LRRK2 and MBP or CST-4E-BP1 were combined before the kinase reaction. LRRK2 autophosphorylation is LRRK2 itself phosphorylation and MBP or GST-4E-BP1 phosphorylation is induced by LRRK2. After the kinase reaction, combined LRRK2 and MBP or GST-4E-BP1 were loaded on SDSPAGE and phosphorylated LRRK2 and MBP or GST-4E-BP1 could be detected separately an a single gel. Recombinant proteins and inhibitors were incubated at 30° C. in kinase assay buffer containing 20 mM Hepes (pH 7.4), 5 mM EGTA, and 20 mM β-glycerol phosphate. 0.5 μg MBP (Upstate) or 0.5 μg GST-4B-BP1, 50 μM ATP (Sigma), 20 mM MgCl2, and 1 μCi [γ-32P] ATP (PerkinElmer) was added after 5 min. The reaction was performed at 30° C. to reduce non-specific 32P incorporation for 15 min and terminated by the addition of 5×Laemmili sample buffer. […] Gels were stained by coomassie brilliant blue after fixation with 10% acetic acid and 40% methanol and then exposed to a Phosphoimager. Data were analyzed by ImageQuant 6.0 software.
(§4) To calculate the IC50 value, a dose-response curve was constructed and non-linear regression analysis using the equation for a sigmoid plot.

[3] = target: T1, LRRK2 G2019S; experiment: In vitro kinase assay: G2019S LRRK2-mediated MBP phosphorylation; settings: for effect on G2019S LRRK2 MBP phosphorylation: dose-response; for IC50: Table 2, mean of three experiments
Procedure: as §1, §2, §3, §4

[4] = target: G2019S LRRK2 (Homo sapiens, UniProt Q5S007, G2019S); experiment: In vitro kinase assay: LRRK2-mediated phosphorylation of 4E-BP1
Chain of G2019S LRRK2 (Q5S007 whole entry G2019S): as the sequence (Q5S007 whole entry) above, with G2019S counted along it
Procedure: The GST-4E-BP1 expressing vector was generated using the Invitrogen Gateway LR Clonase System. Briefly, an entry clone containing the 4E-BP1 sequence was reacted with the destination vector, pDEST-15 in the presence of the LR clonase mixture. After the clonase reaction, the mixture was transformed into One Shot BL21 chemically competent E. coli. The transformed cells were grown on ampicillin containing LB agar plate for one day at 37° C. Colonies containing GST-4E-BP1 were isolated. For protein induction, 100 μM IPTG was added to 100 mL culture and incubated for 3 h at 30° C. After IPTG incubation, cells were collected by centrifugation at 3,000×g for 15 min. The pellet was lysed with sonication in the presence of lysis butter containing 0.5% TX-100, 50 mM Tris-HCl (pH 8.0), 100 mM NaCl, 0.5 mM EGTA, 5 mM MgCl2, 2 mM DTT, and complete protease inhibitors. The lysate was centrifugated at 15,000×g for 15 min and the supernatant was incubated with GSH-sepharose beads for 2 h at 4° C. After incubation, the beads were washed with PBS containing an additional 150 mM NaCl and 0.1% TX-100 three times. The protein was eluted with elution buffer containing Hepes (pH 8.0), 150 mM NaCl, 30% glycerol, and 30 mM glutathione. The eluted proteins were stored at −80° C.
The in vitro kinase assay was performed as previously described. West, A. B. et al. Parkinson's disease-associated mutations in leucine-rich repeat kinase 2 augment kinase activity. Proc Natl Acad Sci USA 102, 16842-16847 (2005). Recombinant LRRK2 and MBP or CST-4E-BP1 were combined before the kinase reaction. LRRK2 autophosphorylation is LRRK2 itself phosphorylation and MBP or GST-4E-BP1 phosphorylation is induced by LRRK2. After the kinase reaction, combined LRRK2 and MBP or GST-4E-BP1 were loaded on SDSPAGE and phosphorylated LRRK2 and MBP or GST-4E-BP1 could be detected separately an a single gel. Recombinant proteins and inhibitors were incubated at 30° C. in kinase assay buffer containing 20 mM Hepes (pH 7.4), 5 mM EGTA, and 20 mM β-glycerol phosphate. 0.5 μg MBP (Upstate) or 0.5 μg GST-4B-BP1, 50 μM ATP (Sigma), 20 mM MgCl2, and 1 μCi [γ-32P] ATP (PerkinElmer) was added after 5 min. The reaction was performed at 30° C. to reduce non-specific 32P incorporation for 15 min and terminated by the addition of 5×Laemmili sample buffer. The reactions were then heated at 70° C. for 10 min and resolved by 12% SDS-PAGE. Gels were stained by coomassie brilliant blue after fixation with 10% acetic acid and 40% methanol and then exposed to a Phosphoimager. Data were analyzed by ImageQuant 6.0 software.

Cc1ccc(NC(=O)c2cccc(N(C)C)c2)cc1NC(=O)c1ccc(O)cc1 [Inhibitor 53, ZM336372]
effect on WT LRRK2 MBP phosphorylation [1]: no effect | effect on G2019S LRRK2 autophosphorylation [2]: no effect | effect on G2019S LRRK2 MBP phosphorylation [3]: no effect | LRRK2-mediated phosphorylation of 4E-BP1 [4]: did not inhibit

O=C1Nc2ccccc2/C1=C1/Nc2ccccc2/C1=N\O [Inhibitor 70, Indirubin-3-monooxine]
IC50 ([1]; Table 2): 4.83 µM | IC50 ([1]; Table 3): 4.83 µM | MBP phosphorylation Average ± SEM [1]: 33.1 ± 15.7 % of control | effect on WT LRRK2 MBP phosphorylation [1]: inhibited | effect on LRRK2-mediated phosphorylation of MBP [1]: substantially inhibited | IC50 [2]: 380 nM | effect on G2019S LRRK2 autophosphorylation [2]: inhibited | IC50 [3]: 1310 nM | effect on G2019S LRRK2 MBP phosphorylation [3]: inhibited | LRRK2-mediated phosphorylation of 4E-BP1 [4]: inhibited

O=C1Nc2ccc(I)cc2/C1=C/c1cc(Br)c(O)c(Br)c1 [Inhibitor 56, GW5074]
IC50 ([1]; Table 2): 3.15 µM | IC50 ([1]; Table 3): 1.09 µM | MBP phosphorylation Average ± SEM [1]: 4.7 ± 4.1 % of control | effect on LRRK2-mediated phosphorylation of MBP [1]: substantially inhibited | IC50 [2]: 220 nM | IC50 [3]: 880 nM | LRRK2-mediated phosphorylation of 4E-BP1 [4]: inhibited
